Test results published in patent US6821761B2, “Sphingolipid ceramide N-deacylase, methods for producing sphingolipids and sphingolipid derivatives, and sphingolipid ceramide N-deacylase gene” (Takara Bio, Inc., priority 1994, dated 2004).

Columns and labels:
[1] = tested on: SCDase derived from the genus Pseudomonas; assay: Reverse reaction on various acceptors by SCDase-1 ([1-14C] stearic acid); type: biochemical; settings: 1 nmol [1-14C] stearic acid, 1 nmol lysosphingolipid, 30 μU SCDase, acetate buffer pH 6.0, 0.8% Triton X-100, overnight 37° C., galactosylsphingosine = 100
Procedure: A 10 μl portion of 50 mM acetate buffer (pH 6.0) containing 1 nmol [1-^14C] stearic acid, 1 nmol lysosphingolipid, 0.8% Triton X-100 and 30 μU SCDase derived from the genus Pseudomonas was subjected to overnight reaction at 37° C. The thus obtained reaction solution was developed on thin layer chromatography and exposed to an imaging plate to carry out for determining the reaction product by BAS 1000 Imaging Analyzer (manufactured by Fuji Photo Film).

[2] = tested on: SCDase derived from the genus Pseudomonas; assay: Reverse reaction on various acceptors by SCDase-2 (N-trifluoroacetylated aminododecanoic acid); type: biochemical; settings: 66.6 nmol N-trifluoroacetylated aminododecanoic acid, 33.3 nmol lysosphingolipid, 148 μU SCDase, glycine-NaOH pH 11, 0.3% Triton X-100, 48 hours 37° C.
Procedure: A 41.6 μl portion of 25 mM glycine-sodium hydroxide buffer (pH 11) containing 66.6 nmol N-trifluoroacetylated aminododecanoic acid, 33.3 nmol lysosphingolipid, 0.3% Triton X-100 and 148 μU SCDase derived from the genus Pseudomonas was subjected to 48 hours of reaction at 37° C.
The thus obtained reaction solution was developed on thin layer chromatography, a glycosphingolipid was colored with orcinol-sulfuric acid, and other sphingolipids with Coomassie Brilliant Blue, and then determination of the reaction product was carried out by Imaging Densitometer (manufactured by Bio-Rad).

[3] = tested on: SCDase derived from the genus Pseudomonas; assay: Fatty acid exchange reaction on various acceptors by SCDase; type: biochemical; settings: 1 nmol [1-14C] stearic acid, 1 nmol sphingolipid, 30 μU SCDase, acetate buffer pH 6.0, 0.8% Triton X-100, overnight 37° C., galactosyl ceramide = 100
Procedure: A 10 μl portion of 50 mM acetate buffer (pH 6.0) containing 1 nmol [1−^14C] stearic acid, 1 nmol sphingolipid, 0.8% Triton X-100 and 30 μU SCDase derived from the genus Pseudomonas was allowed to react overnight at 37° C.
The thus obtained reaction solution was developed on thin layer chromatography and exposed to an imaging plate to carry out determination of the reaction product by BAS 1000 Imaging Analyzer (manufactured by Fuji Photo Film).

[4] = tested on: SCDase; assay: Substrate specificity (hydrolysis) of purified SCDase from Pseudomonas sp. TK-4; type: biochemical; settings: 10 nmol sphingolipid, 2 milliunits enzyme, 37° C. 16 h, 20 mM sodium acetate buffer pH 5.0, 0.8% Triton X-100, TLC
Procedure: (§1) The enzyme activity of the SCDase is assayed in the following manner. To 10 μl of a substrate solution [50 mM acetate buffer solution (pH 6.0) containing 2 mM of asialo GM1 and 0.6% (w/v) of Triton X-100] is added 10 μl of an enzyme solution. After reacting at 37° C. for 30 minutes, the enzyme reaction is ceased by heating the mixture to 100° C. for 3 minutes. Then the reaction mixture is concentrated to dryness with a centrifugal concentrator. Then the obtained concentrate is dissolved in 10 μl of 50% methanol and placed on a TLC plate (silica gel 60; manufactured by Merck & Co., Inc.). After developing with chloroform/methanol/0.02% aqueous solution of CaCl2 (5/4/1 by volume), the sphingolipid is subjected to color development by the orcinol-sulfuric acid method. […] This spot is determined by using a TLC chromatoscanner (Shimadzu CS-9000, manufactured by Shimadzu Corporation) at a wavelength of 540 nm.
Sphingolipids (10 nmol each) were incubated at 37° C. for 16 h with 2 milliunits of the enzyme in 20 μl of 20 mM sodium acetate buffer, pH 5.0, containing 0.8% Triton X-100. The extent of hydrolysis was examined by TLC and calculated.

[5] = tested on: crude SCDase; assay: Substrate specificity of crude SCDase (culture supernatant) from Shewanella alga NS-589; type: biochemical; settings: for Substrate specificity: acting on the substrate, forming the corresponding lysosphingolipid and fatty acid: SCDase produced by Shewanella alga NS-589; for Digestion ratio (%): crude SCDase supernatant, 1.2 mM sphingolipid, acetate buffer pH 6.0, Triton X-100, 37° C. 16 hours, TLC
Source text: Acting on acidic glycolipids (GM1, GM2, GD1a, GD1b, sialosyl paragloboside, etc.), neutral glycolipids (lactosyl ceramide, Gb4, Gb5, etc.), sulfated glycolipids (sulfatide, etc.) and sphingomyelin which is a sphingophospholipid, thus forming the corresponding lysosphingolipid and fatty acid in each case.
The substrate specificity was examined as follows. Shewanella alga NS-589 was inoculated into a synthetic medium (dipotassium hydrogenphosphate 0.05%, ammonium chloride 0.05%, sphingomyelin 0.1%, sodium taurodeoxycholate 0.1%, sodium chloride 2%, 2,6-O-dimethyl-β-cyclodextrin 0.1%; pH 7.4). Two days after shaking cultivation at 30° C., the strain was removed to obtain a supernatant by centrifuge. A 50 mM acetate buffer ([…]; pH 6.0) containing 3 μl of the supernatant and 1.6% Triton X-100 was allowed to react with 5 μl of 1.2 mM of each of sphingolipids shown in Table 2 at 37° C. for 16 hours, and then the resulting mixture was analyzed with a thin layer chromatography.
The digestion ratios of various substrates by a crude SCDase obtained from Shewanella alga NS-589.

[6] = tested on: Pseudomonas sp. TK-4; assay: Conversion of glycosphingolipids into lyso-forms by culture of Pseudomonas sp. TK-4; type: cell-based; settings: PY medium with 0.1% 2,6-O-dimethyl-β-cyclodextrin, glycosphingolipid 0.5 mg/ml (Gb4 0.1 mg/ml), 25° C. shaking 3 days, TLC of supernatant
Procedure: A 60 ml portion of PY medium (polypeptone 0.5%, yeast extract 0.1%, sodium chloride 0.2%; pH 7.2) containing 30 mg of ganglioside GM1 (manufactured by Iatron) and 0.1% of 2,6-O-dimethyl-β-cyclodextrin was sterilized and inoculated with the strain which had been incubated overnight in a slant medium containing 0.1% of crude bovine brain ganglioside prepared in accordance with the method described in Methods in Enzymology, 14:660-664 (1969). Then, the strain was incubated therein under shaking at 25° C. for 3 days.
Then the cells were eliminated by centrifuging the culture medium and thus the culture supernatant was obtained.
PY medium (polypeptone 0.5%, yeast extract 0.1%, sodium chloride 0.2%; pH 7.2) containing 0.1% of 2,6-O-dimethyl-β-cyclodextrin was sterilized in an autoclave and filter-sterilized aqueous solutions of various glycosphingolipids [i.e., GM1, GM2 (manufactured by Matreya), GM3 (manufactured by Iatron), GD1a (manufactured by Iatron), GD1b (manufactured by Iatron), GD3 (manufactured by Iatron), GT1b (manufactured by Biocarb), sulfatide (manufactured by Matreya): each 0.5 mg/ml, Gb4 (manufactured by Iatron): 0.1 mg/ml] were added thereto. Then each medium was inoculated with Pseudomonas sp. TK-4, which had been incubated overnight in a slant medium containing 0.1% of crude bovine brain ganglioside, followed by incubation at 25° C. under shaking for 3 days.
Then the cells were eliminated by centrifuging the culture medium to obtain the culture supernatant which was then analyzed by thin layer chromatography.

[7] = Enzymological properties of SCDase of Pseudomonas sp. TK-4 (optimum pH, temperature, stability); type: biochemical
Procedure: as §1
One unit (1 U) of activity is defined as the amount of the enzyme liberating 1 μmol of lysoasialo GM1 per minute from asialo GM1 at 37° C. […]
The enzyme of the present invention is maintained at each definite pH value at 5C for 16 hours. After returning the pH value to 6.0, the enzyme activity is measured to thereby examine the pH stability of the enzyme. […]

Molecule	Relative activity (%) [1] [%]	Relative activity (%) [3] [%]	Digestion ratio (%) [4] [%]	other results
CCCCCCCCCCCCC/C=C/[C@@H](O)[C@@H](N)CO[C@@H]1O[C@H](CO)[C@H](O)[C@H](O)[C@H]1O [Galactosylsphingosine, galactosylsphingosine]	100.0	–	–	–
CCCCCCCCCCCCC/C=C/[C@@H](O)[C@@H](N)CO[C@@H]1O[C@H](CO)[C@@H](O[C@@H]2O[C@H](CO)[C@H](O[C@@H]3O[C@H](CO)[C@H](O)[C@H](O[C@@H]4O[C@H](CO)[C@H](O)[C@H](O)[C@H]4O)[C@H]3NC(C)=O)[C@H](O[C@]3(C(=O)O)C[C@H](O)[C@@H](NC(C)=O)[C@H]([C@H](O)[C@H](O)CO)O3)[C@H]2O)[C@H](O)[C@H]1O [Lysoganglioside GM1a]	15.4	–	–	Reaction Efficiency (%) [2]: 29%
CCCCCCCCCCCCCC=CC(O)C(N)COC1OC(CO)C(OC2OC(CO)C(O)C(OC3(C(=O)O)CC(O)C(NC(C)=O)C(C(O)C(O)CO)O3)C2O)C(O)C1O (stereo not drawn) [Lysoganglioside GM3]	–	–	–	Reaction Efficiency (%) [2]: 24%
CCCCCCCCCCCCC/C=C/[C@@H](O)[C@@H](N)CO[C@@H]1O[C@H](CO)[C@@H](O[C@@H]2O[C@H](CO)[C@H](O)[C@H](O)[C@H]2O)[C@H](O)[C@H]1O [Lysolactosyl ceramide]	37.2	–	–	–
CCCCCCCCCCCCC/C=C/[C@@H](O)[C@@H](N)COP(=O)([O-])OCC[N+](C)(C)C [Lysosphingomyelin, sphingosylphosphorylcholine]	5.7	–	–	–
CCCCCCCCCCCCC/C=C/[C@@H](O)[C@@H](N)CO[C@@H]1O[C@H](CO)[C@H](O)[C@H](OS(=O)(=O)O)[C@H]1O [Lysosulfatide]	59.6	–	–	–
CCCCCCCCCCCCC/C=C/[C@@H](O)[C@@H](N)CO [Sphingosine, sphingosine]	11.5	–	–	Reaction Efficiency (%) [2]: 69%
Ceramide	–	77.5	–	–
GD1a	–	6.2	49	Substrate specificity: acting on the substrate, forming the corresponding lysosphingolipid and fatty acid [5]: Acting on; Digestion ratio (%) [5]: 32.6%; Digestion ratio (%) [6]: 100%
GD1b	–	1.2	–	Substrate specificity: acting on the substrate, forming the corresponding lysosphingolipid and fatty acid [5]: Acting on; Digestion ratio (%) [6]: 100%
GT1b	–	–	–	Digestion ratio (%) [5]: 26.2%; Digestion ratio (%) [6]: 100%
Gal-GalNAc-Gal-Glc-Cer [Asialo GM1]	–	164.0	67	–
Galactosyl ceramide [Gal-cer]	–	100.0	42	–
Glucosyl ceramide [Glc-cer]	–	129.0	48	–
Sulfatide	–	31.7	59	Substrate specificity: acting on the substrate, forming the corresponding lysosphingolipid and fatty acid [5]: Acting on; Digestion ratio (%) [6]: 100%
lactosyl ceramide [Lac-cer]	–	112.0	64	Substrate specificity: acting on the substrate, forming the corresponding lysosphingolipid and fatty acid [5]: Acting on; Digestion ratio (%) [5]: 19.3%
SCDase (Pseudomonas sp. TK-4): sphingolipid ceramide N-deacylase produced by Pseudomonas sp. TK-4, SEQ ID NO:1 (protein, OTHER INFORMATION: Description of Unknown Or ganism: sphingolipid ceramide N-deacylase) ELGDYGAWKTLLNLTSPPKADNPVRAEQRVGPYPMLANPAGFRSGFTPTAYFAWQTVQLAPETGAVCGDGSPYKFFVNRMPNTSNTLIYMEGGGACWDYASCSGQAGIRGARNPNGIPDDYMKLANPQASLVSPFVVRLHPYSRVKTQGWNIVYIPYCTGDLYAGDKVAVYDDPSGKKPPLVWHHNGLRNGRAVLGWLKDNLERPGQMLSTGCSAGGAGSLISHSVLRQDLAPDRGFLIDDSGPVFSAAVGGDSQTYPSLPLQNLIRSAWGLDQGPLQFLQSRLPGVSLSNLGSLYPALAANFPGDRLGHTHFWQDLNYSSYSYERFYPEIANAPDKATKEALIKAKWQVDTARLRDTLANLPNFGGYFPQYRALNESHCTTIVDFANGDIQEQGLELSHFIDNVLNGQGPVLDASELSDSADRAKPNNLIYDAINKLL	–	–	–	Optimum temperature (maximum activity) ([7]; FIG. 2): about 40 °C; Heat stability: activity sustained ([7]; after treating at 60° C. for 30 minutes, FIG. 4): 90%
